Source: publication PMC3678512, “Synthesis and physicochemical characterization of novel phenotypic probes targeting the nuclear factor-kappa B signaling pathway” (Beilstein Journal of Organic Chemistry, 2013)
pIC50: −log10 of the molar value. In brackets after ≈: the same amount, converted by molar mass. Where two headings read alike, the source gives them in different places.

What was measured:
[1] = system: TNF-α-dependent IL-8 secretion in MCF-7 cells; assay: TNF-α-dependent IL-8 secretion in MCF-7 cells; type: cell-based
[2] = system: NOD2; assay: MDP-stimulated signal transduction in NOD2 reporter cell lines; type: cell-based; details: reporter cell lines with low or overexpressed NOD2
[3] = PAMPA (parallel artificial membrane permeability assay); type: in vitro ADME
Protocol: (§1) The probes were evaluated using known in vitro ADME/T assays to understand their overall pharmacological properties (Table 2). […] The PAMPA (parallel artificial membrane permeability assay) assay is used as an in vitro model of passive, transcellular permeability. An artificial membrane immobilized on a filter is placed between a donor and acceptor compartment. […] It is not yet known whether it represents a species specific CPY450 inhibitor.

[4] = biological target: T1, NOD1 (Homo sapiens, UniProt Q9Y239); assay: γ-tri-DAP-stimulated luciferase production in HEK 293T cells (NF-κB-linked reporter assay); type: cell-based; details: HEK 293T cells with endogenous NOD1, NF-κB-linked reporter; read-out: IC50, inhibition of γ-tri-DAP-stimulated luciferase production
T1 construct: luciferase production in HEK 293T cells, which has endogenous NOD1 levels; endogenous in cells; host or cells: HEK 293T
T1 sequence (Q9Y239 1-953): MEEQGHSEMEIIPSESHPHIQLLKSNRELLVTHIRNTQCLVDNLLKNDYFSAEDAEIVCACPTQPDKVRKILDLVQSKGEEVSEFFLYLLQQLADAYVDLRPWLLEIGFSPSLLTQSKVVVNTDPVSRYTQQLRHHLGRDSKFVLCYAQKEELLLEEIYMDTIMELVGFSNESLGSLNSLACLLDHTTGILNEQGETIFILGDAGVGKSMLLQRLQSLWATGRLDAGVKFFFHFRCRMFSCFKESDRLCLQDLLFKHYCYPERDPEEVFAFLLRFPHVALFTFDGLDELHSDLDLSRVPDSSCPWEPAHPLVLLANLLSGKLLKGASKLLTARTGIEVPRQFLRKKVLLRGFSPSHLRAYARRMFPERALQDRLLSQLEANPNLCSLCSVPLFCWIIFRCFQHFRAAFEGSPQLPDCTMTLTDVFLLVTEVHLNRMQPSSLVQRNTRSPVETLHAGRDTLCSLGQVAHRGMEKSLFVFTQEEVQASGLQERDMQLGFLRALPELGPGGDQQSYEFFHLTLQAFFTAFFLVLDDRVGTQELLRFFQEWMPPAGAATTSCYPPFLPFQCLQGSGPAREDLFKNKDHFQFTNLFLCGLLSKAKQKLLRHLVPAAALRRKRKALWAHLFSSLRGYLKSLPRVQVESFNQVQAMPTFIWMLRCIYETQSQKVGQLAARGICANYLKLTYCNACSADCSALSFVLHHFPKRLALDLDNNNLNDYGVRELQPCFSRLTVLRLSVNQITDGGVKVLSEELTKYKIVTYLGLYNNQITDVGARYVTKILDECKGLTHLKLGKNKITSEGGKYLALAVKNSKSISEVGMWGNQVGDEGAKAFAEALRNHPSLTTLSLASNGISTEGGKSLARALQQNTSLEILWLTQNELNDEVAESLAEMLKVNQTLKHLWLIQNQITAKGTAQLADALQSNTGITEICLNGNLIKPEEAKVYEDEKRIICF

[5] = Aqueous solubility; type: physicochemical; details: for solubility: aqueous medium
Protocol: as §1

[6] = Hepatic microsome stability, human; type: in vitro ADME; details: human, compound at 1 μM, 60 min
Protocol: as §1

[7] = Hepatic microsome stability, mouse; type: in vitro ADME; details: compound at 1 μM, 60 min
Protocol: as §1

[8] = system: non-NOD-stimulated NF-κB pathways; assay: Non-NOD-stimulated NF-κB pathway reporter assays (TNF-α, doxorubicin, PMA/ionomycin); type: cell-based; details: doxorubicin and PMA/ionomycin reporter assays
[9] = system: NOD2-dependent IL-8 secretion in MCF-7 cells; assay: NOD2-dependent IL-8 secretion in MCF-7 cells; type: cell-based
[10] = Hepatic toxicity in immortalized human hepatocytes; type: cell-based; details: Fa2N-4 immortalized human hepatocytes, read-out: Hepatic toxicity LC50
Protocol: as §1

[11] = system: NOD1 (γ-tri-DAP) dependent IL-8 secretion; assay: NOD1 (γ-tri-DAP) dependent IL-8 secretion; type: cell-based

C/C=C/Cn1c(SCCCc2ccccc2)nc2c1c(=O)[nH]c(=O)n2C [Probe 17]
Inhibition of TNF-α-dependent IL-8 secretion [1]: neither inhibited | Selectivity for NOD1-dependent over MDP-stimulated (NOD2-dependent) signal transduction [2]: > 8 fold | PAMPA Pe, donor pH 5.0 ([3]; donor pH 5.0, acceptor pH 7.4, compound at 50 μM): 1269 10^−6 cm/s | PAMPA Pe, donor pH 6.2 ([3]; donor pH 6.2, acceptor pH 7.4, compound at 50 μM): 1516 10^−6 cm/s | PAMPA Pe, donor pH 7.4 ([3]; donor pH 7.4, acceptor pH 7.4, compound at 50 μM): 1344 10^−6 cm/s | pIC50 [4]: 5.81 | Solubility (in words) ([5]; across pH 5 to 7.4): lowest solubility | solubility ([5]; aqueous buffer, pH 5.0, read-out: Aqueous solubility pH 5.0): 1.5 µM (≈ 0.556 µg/mL) | solubility ([5]; pH 6.2, aqueous buffer, read-out: Aqueous solubility pH 6.2): 1.8 µM (≈ 0.667 µg/mL) | solubility ([5]; pH 7.4, aqueous buffer, read-out: Aqueous solubility pH 7.4): 1.7 µM (≈ 0.63 µg/mL) | Hepatic microsome stability, human (% remaining) [6]: 8.8 % remaining | Hepatic microsome stability, mouse (% remaining) [7]: 0.86 % remaining | Selectivity over non-NOD-stimulated NF-κB pathways [8]: selective | Inhibition of NOD2-dependent IL-8 secretion [9]: neither inhibited | CC50 [10]: > 50000 nM | Inhibition of NOD1 (γ-tri-DAP) dependent IL-8 secretion [11]: selectively inhibited IL-8 secretion
